Like-named read-outs stand apart in the source and are kept apart here.
Experiments:
[1] = format: physicochemical; details: for Benzyl alcohol mg/g (55° C.) / Lidocaine mg/g (45° C.): in REVANESSE dermal filler
Procedure: The benzyl alcohol product was held for 12 weeks at 55° C. which approximates 2 years shelf life; the amount of benzyl alcohol degraded by only 5.75%. In contrast, the amount of lidocaine degraded by 11.61% over 12 weeks at 45° C., which approximates to 1 year shelf life.

[2] = cited from earlier work
[3] = 0.05% to 5% solution; cited from earlier work
[4] = 5% solution, animal studies; cited from earlier work

Row | SMILES | stability compared with lidocaine [1] | Benzyl alcohol mg/g (55° C.) ([1]; 0 weeks) [mg/g] | Benzyl alcohol mg/g (55° C.) ([1]; 4 weeks) [mg/g] | Benzyl alcohol mg/g (55° C.) ([1]; 8 weeks) [mg/g] | amount degraded ([1]; 12 weeks, 8.7 mg/g) [%] | Benzyl alcohol mg/g (55° C.) ([1]; 12 weeks) [mg/g] | injection pain and anesthesia duration ([2]; in combination with lidocaine (1%)) | duration of anesthetic effect compared with lidocaine ([2]; in vivo) | injection pain compared with plain lidocaine ([2]; injection) | anesthetic effectiveness [3] | safety [4] | Lidocaine mg/g (45° C.) ([1]; 0 weeks) [mg/g] | Lidocaine mg/g (45° C.) ([1]; 4 weeks) [mg/g] | Lidocaine mg/g (45° C.) ([1]; 8 weeks) [mg/g] | amount degraded ([1]; 12 weeks, 3.1 mg/g) [%] | Lidocaine mg/g (45° C.) ([1]; 12 weeks) [mg/g]
1 | OCc1ccccc1 [Benzyl alcohol, benzyl alcohol] | better than lidocaine | 8.7 | 8.7 | 8.6 | 5.75 | 8.2 | reduces injection pain as well as anesthesia duration | shorter duration than lidocaine | significantly less painful | considered somewhat effect | deemed safe | – | – | – | – | –
2 | CCN(CC)CC(=O)Nc1c(C)cccc1C [Lidocaine, lidocaine, reference compound] | – | – | – | – | – | – | – | – | – | – | – | 3.1 | 2.9 | 2.82 | 11.61 | 2.74
